According to patent US10357539B2, “Use of peptides that block metadherin-SND1 interaction as treatment for cancer” (THE TRUSTEES OF PRINCETON UNIVERSITY, priority 2014, dated 2019):

T1: MTDH (Mus musculus, UniProt Q80WJ7)
T1 construct: endogenous in cells; host or cells: SND1-KD PyMT;Mtdh+/+ mouse mammary tumor cells
T1 sequence (Q80WJ7 1-579): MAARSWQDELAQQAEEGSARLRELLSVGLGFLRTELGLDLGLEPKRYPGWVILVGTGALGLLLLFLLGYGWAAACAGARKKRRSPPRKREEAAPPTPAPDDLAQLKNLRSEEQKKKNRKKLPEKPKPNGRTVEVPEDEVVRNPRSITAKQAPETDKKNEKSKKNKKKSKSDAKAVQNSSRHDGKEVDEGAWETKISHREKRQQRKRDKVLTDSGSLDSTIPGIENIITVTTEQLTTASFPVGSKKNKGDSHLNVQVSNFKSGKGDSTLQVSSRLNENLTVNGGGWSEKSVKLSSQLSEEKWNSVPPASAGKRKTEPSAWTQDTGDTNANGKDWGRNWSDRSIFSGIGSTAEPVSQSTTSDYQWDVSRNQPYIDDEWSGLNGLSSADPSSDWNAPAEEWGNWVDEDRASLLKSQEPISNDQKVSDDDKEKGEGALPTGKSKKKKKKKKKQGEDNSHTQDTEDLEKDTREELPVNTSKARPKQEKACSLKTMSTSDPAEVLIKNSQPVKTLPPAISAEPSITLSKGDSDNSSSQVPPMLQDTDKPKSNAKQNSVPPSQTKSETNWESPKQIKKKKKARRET

B1: murine SND1 R255E: shRNA-resistant murine SND1 mutant R255E (protein, UniProt Q78PY7 2-910, looked up, variant R255E)
Staphylococcal nuclease …: ASSAQSSGSSGGPAVPTVQRGIVKMVLSGCAIIVRGQPRGGPPPERQINLSNIRAGNLARRAAATQPDGKDTPDEPWAFPAREFLRKKLIGKEVCFTIENKTPQGREYGMIYLGKDTNGENIAESLVAEGLATRREGMRANNPEQNRLSECEEQAKASKKGMWSEGNGSHTIRDLKYTIENPRHFVDSHHQKPVNAIIEHVRDGSVVRALLLPGHHLVTVMLSGIKCPTFRRETDGSETPEPFAAEAKFFTESELLQRDVQIILESCHNQNLLGTILHPNGNITELLLKEGFARCVDWSIAVYTRGAEKLRAAERFAKERRLRIWRDYVPPTANLDQKDKQFVAKVMQVLNADAIVVKLNSGDYKTIHLSSIRPPRLEGDNIQDKNKKLRPLYDIPYMFEAREFLRKKLIGKKVNVTVDYIRPASPATETVPAFSERTCATVTIGGINIAEALVSKGLATVIRYRQDDDQRSSHYDELLAAEARAIKNGKGLHSKKEVPIHRVADISGDTQKAKQFLPFLQRAGRSEAVVEYVFSGSRLKLYLPKETCLITFLLAGIECPRGARNLPGLVQEGEPFSEEATLFTKELVLQREVEVEVESMDKAGNFIGWLHMDGANLSVLLVEQALSKVHFTAERSAYYKPLLSAEEAAKQRKEKVWAHYEERPVEEVMPVLEEKERSASYKPVFVTEITDDLHFYVQDVETGTQLEKLMENMRNDISSHPPVEGSYAPRRGEFCIAKFVDGEWYRARVEKVESPAKVHVFYIDYGNREILPSTRLGTLPPAFSTRVLPAQATEYAFAFIQVPQDEDARTDAVDSVVRDIQNTQCLLNVEHLSASCPHVTLQFADSKGDVGLGLVKEGLVMVEVRKEKQFQKVITEYLNAQESAKSARLNLWRYGDFRADDADEFGYSR
modifications: shRNA-resistant

Tests used:
[1] = tested on: PyMT;Mtdh−/− pMECs; assay: CPT-induced apoptosis of MECs (PI and Hoechst staining); format: cell-based, mouse; settings: CPT to induce DNA replication stress
Protocol: (§1) FIGS. 9A-I illustrates that MTDH confers survival advantage by interacting with and stabilizing pro-survival protein SND1 under stress. (FIG. 9A) Quantification of cleaved caspase 3-positive MECs from normal or MMTV-PyMT preneoplastic glands (n>3) of WT (left column) or KO females (right column). (FIG. 9B) The effect of CPT on the apoptosis of PyMT;Mtdh−/− pMECs reconstituted with indicated Mtdh constructs (left column: VEC; middle column: WT; right column: W391D) was determined by PI and Hoechst staining. (FIG. 9C) The effect of CPT on the apoptosis of control (left column) or SND1-KD (right column) PyMT;Mtdh+/+ pMECs. (FIG. 9D) Protein levels of SND1 and β-actin (loading control) in control or MTDH-KD PyMT;Mtdh+/+ pMECs treated with CPT at indicated concentrations for 36 hours. Degradation curve (right) represents the average of 3 independent experiments. (FIG. 9E) Western blotting of SND1, MTDH and β-actin (loading control) in PyMT;Mtdh−/− MECs reconstituted with indicated constructs after CPT treatment for 48 hours. Degradation curves (right) represent average of 3 independent experiments. […] Z scores were calculated based on gene expression changes and gene functions as specified by the ingenuity knowledge base. […]

[2] = tested on: SND1; assay: SND1 protein levels in MECs treated with CPT (western blot); format: cell-based, mouse; settings: PyMT;Mtdh+/+ pMECs, CPT at indicated concentrations for 36 hours
Protocol: as §1

[3] = target: T1, MTDH; assay: Anti-MTDH immunoprecipitation from SND1-KD PyMT;Mtdh+/+ tumor cells reconstituted with murine SND1; format: cell-based; settings: shRNA-resistant construct in SND1-KD PyMT;Mtdh+/+ tumor cells
Protocol: (FIG. 24A) Lysates from SND1-KD PyMT;Mtdh+/+ tumor cells reconstituted with vector control, WT or mutant shRNA-resistant murine SND1 were immunoprecipitated with anti-MTDH antibody and immunoblotted for indicated proteins. (FIG. 24B) Mammosphere assays were performed with SND1-KD PyMT;Mtdh+/+ tumor cells reconstituted with vector control or indicated SND1 constructs. (FIG. 24C, FIG. 24D) Mammary tumor incidence (FIG. 24C) and tumor growth curve (FIG. 24D) after orthotopic transplantations of SND1-KD PyMT;Mtdh+/+ tumor cells reconstituted with indicated constructs. Statistics: (FIG. 24B, FIG. 24D) Student's t-test. Data represent mean±SEM. (FIG. 24C) Chi-square test. […], *p<0.01, *p<0.05.
Immunoprecipitation and western blot: For in vivo immunoprecipitation (IP) experiments, cultured cells were washed in cold PBS and lysed in lysis buffer (20 mM Tris pH 7.4, 0.15 M NaCl, 1 mM EDTA, 1 mM EGTA, 1% Tx-100, 0.0025 M Na2P2O7, 1 mM β-glycerolphosphate, 1 mM Na3VO4, and 1 mM NaF) with an EDTA-free protease inhibitor mixture (Roche Applied Science) and PMSF. Cell lysates were then incubated on ice for 10 min, centrifuged, and precleared by incubating with protein A/G beads (Santa Cruz Biotechnology) for 1 h at 4° C. For IP bead preparation, 30 μl of protein A/G beads were incubated with 5 μg of antibodies for 2 h at 4° C. […]

Molecule	apoptosis of MECs [1]	SND1 protein levels [2]	interaction of murine SND1 mutants with MTDH [3]
CC[C@@]1(O)C(=O)OCc2c1cc1n(c2=O)Cc2cc3ccccc3nc2-1 [CPT, camptothecin]	induced apoptosis of MECs in a dosage-dependent manner	drug dosage-dependent decrease of SND1 protein levels	
B1			nearly completely abolished the interaction with MTDH
